Assay [1] concerns the target T1, G-protein coupled receptor 6 (Homo sapiens, UniProt P46095). As to the kind of experiment: Modulation activity at GPR6 receptor (unknown origin) expressed in CHO-K1 cells assessed as inhibition of constitutive cAMP activity incubated for 45 mins in presence of 300 uM IBMX by Perkin Elmer Lance HTRF Ultrac-AMP assay. It is filed as functional, cell-based. As to conditions: cho-k1.

Assay [2] has as its system Rattus norvegicus. As to the kind of experiment: Reversal of haloperidol-induced catalepsy in Sprague-Dawley rat model of Parkinson's disease assessed as reduction in catalepsy intensity index at 0.1 mg/kg, ip dosed along with haloperidol and measured after 30 mins relative to untreated control. The arrangement: scale not given: the % may be the effect or the level left. In kind it is functional.

Assay [3] deals with T1, G-protein coupled receptor 6. As to the kind of experiment: Modulation activity at GPR6 receptor (unknown origin) expressed in CHO-K1 cells assessed as inhibition of constitutive cAMP activity incubated for 45 mins by Perkin Elmer Lance HTRF Ultrac-AMP assay. It is filed as functional, cell-based.

T1 sequence (P46095 whole entry): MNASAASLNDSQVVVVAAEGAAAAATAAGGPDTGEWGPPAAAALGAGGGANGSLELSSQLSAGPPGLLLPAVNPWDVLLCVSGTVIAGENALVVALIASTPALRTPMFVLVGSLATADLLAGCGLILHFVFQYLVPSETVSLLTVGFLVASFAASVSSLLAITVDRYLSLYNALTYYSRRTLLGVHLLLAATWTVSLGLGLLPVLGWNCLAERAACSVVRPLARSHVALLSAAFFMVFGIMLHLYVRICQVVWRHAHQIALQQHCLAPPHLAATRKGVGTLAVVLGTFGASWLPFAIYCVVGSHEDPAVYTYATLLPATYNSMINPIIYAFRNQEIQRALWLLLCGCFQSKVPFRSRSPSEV

In the case of `CC(=O)N1CCc2nc(N3CCC(Oc4ccc(F)cc4F)CC3)c(NC(C)C)nc2C1`, the IC50 in assay [1] came out at 24.6 nM. Moreover, in assay [2], the Activity is on record as -5.7%. On to `CC(C)Nc1nc2c(nc1N1CCC(Oc3ccc(F)cc3F)CC1)CN(C(=O)CC#N)CC2`, for which, in assay [3], the concentration for half-maximal inhibition (IC50) was determined as 18 nM. Turning to `CC(=O)N1Cc2nc(N3CCC(Oc4ccc(F)cc4F)CC3)c(NCC(F)F)nc2CC1C` (stereo unspecified), the half-inhibitory concentration (IC50) in assay [3] amounted to 24.9 nM. The same measure, in the same setting: next, `CC(C)Nc1nc2c(nc1N1CCC(Oc3ccc(F)cc3F)CC1)C(C)N(S(C)(=O)=O)CC2` (stereo unspecified): 98 nM; `CC1c2nc(NCC(F)F)c(N3CCC(Oc4ccc(F)cc4F)CC3)nc2CCN1S(C)(=O)=O` (stereo unspecified): 87 nM. Regarding `COCC(=O)N1Cc2nc(N3CCC(Oc4ccc(F)cc4F)CC3)c(NCC(F)F)nc2CC1C` (stereo unspecified), the IC50 in assay [3] was found to be 23 nM. The same measure, in the same setting: next, `CC1Cc2nc(NCC(F)F)c(N3CCC(Oc4ccc(F)cc4F)CC3)nc2CN1S(C)(=O)=O` (stereo unspecified): 10.4 nM.

`CC(=O)N1CCc2nc(NC(C)C)c(N3CCC(Oc4ccc(F)cc4F)CC3)nc2C1C` (stereo unspecified): in assay [3], the IC50 amounted to 88 nM. Same read-out and setting: the same measure for `CC(C)Nc1nc2c(nc1N1CCC(C(=O)c3cc(Cl)ccc3F)CC1)CCN(C(=O)N(C)C)C2`: 32.7 nM; for `COc1ccc(OC2CCN(c3nc4c(nc3NC(C)C)CN(C(=O)N(C)C)CC4)CC2)c(F)c1`: 35 nM; for `CC(C)Nc1nc2c(nc1N1CCC(Oc3ccc(F)cc3F)CC1)CCN(C(=O)c1ccno1)C2`: 38.7 nM. As to `CS(=O)(=O)N1CCc2nc(N3CCC(Oc4ccc(F)cc4F)CC3)c(NCC(F)F)nc2C1`, the concentration for half-maximal inhibition (IC50) in assay [3] is 57.2 nM. Turning to `CC(C)Nc1nc2c(nc1N1CCC(Oc3ccc(C#N)cc3F)CC1)CN(C(=O)C1CC1)CC2`, in assay [3], the half-inhibitory concentration (IC50) is 122 nM. Same read-out and setting: next, `O=C(C(F)F)N1CCc2nc(N3CCC(Oc4ccc(F)cc4F)CC3)c(NCC(F)F)nc2C1`: 78.8 nM; `CC(C)Nc1nc2c(nc1N1CCC(Oc3ccc(F)cc3F)CC1)C(C)N(C(=O)C1CC1)CC2` (stereo unspecified): 259 nM; `CC1c2nc(N3CCC(Oc4ccc(F)cc4F)CC3)c(NCC(F)F)nc2CCN1C(=O)C1CC1` (stereo unspecified): 126 nM.

As for `CN(C)C(=O)N1CCc2nc(NCC(F)F)c(N3CCC(Oc4ccc(F)cc4F)CC3)nc2C1`, the IC50 in assay [3] is 9.1 nM.

Consider `CC(C)Nc1nc2c(nc1N1CCC(Oc3ccc(F)cc3F)CC1)CN(C(=O)N(C)C)CC2`, for which the IC50 in assay [3] amounted to 13.8 nM. On to `CC(C)Nc1nc2c(nc1N1CCC(Oc3ccc(F)cc3F)CC1)CCN(C(=O)C1CCCO1)C2` (stereo unspecified), for which the 50% inhibitory concentration (IC50) in assay [3] came to 17.9 nM. Regarding `COC(C)C(=O)N1CCc2nc(N3CCC(Oc4ccc(F)cc4F)CC3)c(NC(C)C)nc2C1` (stereo unspecified), in assay [3], the half-maximal inhibitory concentration (IC50) stood at 16.8 nM.

With `CC(=O)N1CCc2nc(NC(C)C)c(N3CCC(Oc4ccc(C#N)cc4F)CC3)nc2C1`, the IC50 in assay [3] is 105 nM. The same measure, in the same setting: next, `COc1ccc(OC2CCN(c3nc4c(nc3NC(C)C)CCN(C(=O)N(C)C)C4)CC2)c(F)c1`: 16.6 nM; `CN1CCc2nc(NC3CC3)c(N3CCC([C@@H](F)c4ccc(F)cc4F)CC3)nc2C1`: 26.5 nM; `CC(C)Nc1nc2c(nc1N1CCC(C(=O)c3cc(Cl)ccc3F)CC1)CN(C(=O)N(C)C)CC2`: 24.9 nM. On the same count and under the same terms, next, `CC(C)Nc1nc2c(nc1N1CCC(C(=O)c3cc(Cl)ccc3F)CC1)CN(C)CC2`: 8.8 nM; `CC(=O)N1CCc2nc(N3CCC(Oc4ccc(F)cc4F)CC3)c(NCC(F)F)nc2C1C` (stereo unspecified): 178 nM. Consider `COCC(=O)N1CCc2nc(NC(C)C)c(N3CCC(Oc4ccc(F)cc4F)CC3)nc2C1`, for which the half-inhibitory concentration (IC50) in assay [3] was found to be 17.3 nM. With `CC1Cc2nc(NCC(F)F)c(N3CCC(Oc4ccc(F)cc4F)CC3)nc2CN1C(=O)C(F)F` (stereo unspecified), the half-maximal inhibitory concentration (IC50) in assay [3] came to 22.1 nM.

On to `COc1ccc(OC2CCN(c3nc4c(nc3NC3CCC3)CCN(C(=O)N(C)C)C4)CC2)c(F)c1`, for which, in assay [3], the IC50 is 13.8 nM. Still for that read-out and setting: next, `CC(=O)N1CCc2nc(NCC(F)F)c(N3CCC(Oc4ccc(F)cc4F)CC3)nc2C1C` (stereo unspecified): 76 nM; `CC(=O)N1CCc2nc(N3CCC(C(F)c4ccc(F)cc4F)CC3)c(NC(C)C)nc2C1` (stereo unspecified): 13.4 nM. As for `CC(C)Nc1nc2c(nc1N1CCC(Oc3ccc(F)cc3F)CC1)CCN(C(=O)N1CCOCC1)C2`, the 50% inhibitory concentration (IC50) in assay [3] was 62.6 nM. The same measure, in the same setting: next, `COCC(=O)N1CCc2nc(NC(C)C)c(N3CCC(Oc4ccc(F)cc4F)CC3)nc2C1C` (stereo unspecified): 91 nM. Same read-out and setting: next, `CO[C@H](C)C(=O)N1Cc2nc(N3CCC(Oc4ccc(F)cc4F)CC3)c(NCC(F)F)nc2CC1C` (stereo partly specified): 18.5 nM; `CC(C)Nc1nc2c(nc1N1CCC(Oc3ccc(F)cc3F)CC1)CCN(S(=O)(=O)C(C)C)C2`: 149 nM.

As for `CO[C@@H](C)C(=O)N1CCc2nc(N3CCC(Oc4ccc(F)cc4F)CC3)c(NCC(F)F)nc2C1`, the IC50 in assay [3] was 111 nM. As to `COCC(=O)N1CCc2nc(N3CCC(Oc4ccc(F)cc4F)CC3)c(NCC(F)F)nc2C1C` (stereo unspecified), the half-maximal inhibitory concentration (IC50) in assay [3] is 208 nM. Same read-out and setting: the same measure for `COc1ccc(OC2CCN(c3nc4c(nc3NC3CCC3)CN(C(=O)N(C)C)CC4)CC2)c(F)c1`: 32.5 nM; for `COc1ccc(OC2CCN(c3nc4c(nc3NC3CC3)CCN(C)C4)CC2)c(F)c1`: 145 nM. The same measure, in the same setting: next, `CC(C)Nc1nc2c(nc1N1CCC(Oc3ccc(F)cc3F)CC1)CN(C(=O)C1CCCO1)CC2` (stereo unspecified): 19.5 nM. On the same count and under the same terms, next, `CC(C)Nc1nc2c(nc1N1CCC(Oc3ccc(F)cc3F)CC1)CCN(C(=O)N(C)C)C2`: 10.4 nM; `CO[C@@H](C)C(=O)N1CCc2nc(NCC(F)F)c(N3CCC(Oc4ccc(F)cc4F)CC3)nc2C1`: 8.3 nM. Regarding `CO[C@H](C)C(=O)N1CCc2nc(N3CCC(Oc4ccc(F)cc4F)CC3)c(NCC(F)F)nc2C1`, in assay [3], the concentration for half-maximal inhibition (IC50) turned out to be 64 nM. `CC(=O)N1CCc2nc(NC(C)C)c(N3CCC(Oc4ccc(F)cc4F)CC3)nc2C1`: the IC50 was determined as 73.7 nM in assay [1] and 9.5 nM in assay [3].

Regarding `COc1ccc(OC2CCN(c3nc4c(nc3NC3CCC3)CCN(C(C)=O)C4)CC2)c(F)c1`, the IC50 in assay [3] was found to be 12 nM. The same measure, in the same setting: the same measure for `CC1c2nc(NCC(F)F)c(N3CCC(Oc4ccc(F)cc4F)CC3)nc2CCN1C(=O)C1CC1` (stereo unspecified): 85 nM. Turning to `CN1CCc2nc(NC3CC3)c(N3CCC(C(F)c4ccc(F)cc4F)CC3)nc2C1` (stereo unspecified), the IC50 in assay [3] was found to be 9.4 nM.

Turning to `CC(=O)N1CCc2nc(NC(C)C)c(N3CCC(C(=O)c4cc(Cl)ccc4F)CC3)nc2C1`, the IC50 in assay [3] turned out to be 9.8 nM.

Regarding `CC(C)Nc1nc2c(nc1N1CCC(C(F)c3ccc(F)cc3F)CC1)CN(C(=O)N(C)C)CC2` (stereo unspecified), the 50% inhibitory concentration (IC50) in assay [3] came to 23.7 nM.

For `CO[C@H](C)C(=O)N1CCc2nc(NCC(F)F)c(N3CCC(Oc4ccc(F)cc4F)CC3)nc2C1`, the IC50 in assay [3] turned out to be 6.6 nM. `COc1ccc(OC2CCN(c3nc4c(nc3NC(C)C)CCN(C)C4)CC2)c(F)c1`: in assay [3], the concentration for half-maximal inhibition (IC50) came out at 26.6 nM. The same measure, in the same setting: the same measure for `CC(C)Nc1nc2c(nc1N1CCC(Oc3ccc(F)cc3F)CC1)CCN(C(=O)N1CCCC1)C2`: 391 nM. Consider `CC(=O)N1CCc2nc(NC(C)C)c(N3CCC(C(F)c4ccc(F)cc4F)CC3)nc2C1` (stereo unspecified), for which the half-inhibitory concentration (IC50) in assay [3] worked out at 8.5 nM. On to `CN(C)C(=O)N1CCc2nc(N3CCC(Oc4ccc(F)cc4F)CC3)c(NCC(F)F)nc2C1`, for which the IC50 in assay [3] stood at 26.9 nM.
